In ChEMBL document CHEMBL4385643, “Design of a brain-penetrant CDK4/6 inhibitor for glioblastoma” (Bioorg Med Chem Lett, 2019):

Experiments:
[1] = target: NUAK family SNF1-like kinase 1 (Homo sapiens) (UniProt O60285); assay: Inhibition of recombinant full length human His-tagged ARK5 expressed in baculovirus expression system at 0.1 uM using CHKtide peptide as substrate incubated for 60 mins by Adapta assay relative to control
[2] = target: Tyrosine-protein kinase receptor UFO (Homo sapiens) (UniProt P30530); assay: Inhibition of recombinant full length human GST-tagged AXL expressed in insect expression system at 0.1 uM using tyrosine-6 peptide as substrate incubated for 60 mins by Z'-LYTE assay relative to control
[3] = target: Tyrosine-protein kinase Blk (Homo sapiens) (UniProt P51451); assay: Inhibition of recombinant full length human His-tagged BLK expressed in baculovirus expression system at 0.1 uM using tyrosine-1 peptide as substrate incubated for 60 mins by Z'-LYTE assay relative to control
[4] = target: Calcium/calmodulin-dependent protein kinase kinase 2 (Homo sapiens) (UniProt Q96RR4); assay: Inhibition of tracer 236 binding to recombinant full length human GST-tagged CAMKK2 expressed in baculovirus expression system at 0.1 uM measured after 60 mins by Lanthascreen assay relative to control
[5] = target: CDK4/Cyclin D3 (Homo sapiens) (UniProt P11802+P30281); assay: Inhibition of recombinant full length human GST-tagged CDK4/Cyclin D3 expressed in insect expression system at 0.1 uM using Rb peptide as substrate incubated for 60 mins by Adapta assay relative to control
[6] = target: Casein kinase I isoform gamma-1 (Homo sapiens) (UniProt Q9HCP0); assay: Inhibition of recombinant full length human GST-tagged CK1 gamma 1 expressed in baculovirus expression system at 0.1 uM using serine/threonine-5 peptide as substrate incubated for 60 mins by Z'-LYTE assay relative to control
[7] = target: Dual specificity protein kinase CLK1 (Homo sapiens) (UniProt P49759); assay: Inhibition of recombinant human GST-tagged CLK1 catalytic domain (129 to 484 residues) expressed in Escherichia coli expression system at 0.1 uM using serine/threonine-9 peptide as substrate incubated for 60 mins by Z'-LYTE assay relative to control
[8] = target: Calcium/calmodulin-dependent protein kinase type II subunit beta (Homo sapiens) (UniProt Q13554); assay: Inhibition of recombinant full length human His-tagged CAMK2beta expressed in baculovirus expression system at 0.1 uM using serine/threonine-17 peptide as substrate incubated for 60 mins by Z'-LYTE assay relative to control
[9] = target: Serine/threonine-protein kinase DCLK2 (Homo sapiens) (UniProt Q8N568); assay: Inhibition of recombinant full length human GST-tagged DCAMKL2 expressed in baculovirus expression system at 0.1 uM using serine/threonine-17 peptide as substrate incubated for 60 mins by Z'-LYTE assay relative to control
[10] = target: Dual specificity tyrosine-phosphorylation-regulated kinase 3 (Homo sapiens) (UniProt O43781); assay: Inhibition of recombinant full length human GST-tagged DYRK3 expressed in baculovirus expression system at 0.1 uM using serine/threonine-9 peptide as substrate incubated for 60 mins by Z'-LYTE assay relative to control
[11] = target: Epidermal growth factor receptor (Homo sapiens) (UniProt P00533); assay: Inhibition of recombinant human GST-tagged EGFR (668 to 1210 residues) expressed in baculovirus expression system at 0.1 uM using tyrosine-4 peptide as substrate incubated for 60 mins by Z'-LYTE assay relative to control
[12] = target: Homeodomain-interacting protein kinase 2 (Homo sapiens) (UniProt Q9H2X6); assay: Inhibition of recombinant full length human GST-tagged HIPK2 expressed in baculovirus expression system at 0.1 uM using serine/threonine-9 peptide as substrate incubated for 60 mins by Z'-LYTE assay relative to control
[13] = target: Inhibitor of nuclear factor kappa-B kinase subunit alpha (Homo sapiens) (UniProt O15111); assay: Inhibition of recombinant full length human His-tagged IKKalpha expressed in baculovirus expression system at 0.1 uM incubated for 60 mins by Adapta assay relative to control
[14] = target: Dual specificity mitogen-activated protein kinase kinase 1 (Homo sapiens) (UniProt Q02750); assay: Inhibition of recombinant full length human His-tagged MEK1 expressed in baculovirus expression system at 0.1 uM using serine/threonine-3 peptide as substrate incubated for 60 mins by Z'-LYTE assay relative to control
[15] = target: Hepatocyte growth factor receptor (Homo sapiens) (UniProt P08581); assay: Inhibition of recombinant human His-tagged MET (956 to 1390 residues) expressed in baculovirus expression system at 0.1 uM using tyrosine-6 peptide as substrate incubated for 60 mins by Z'-LYTE assay relative to control
[16] = target: MAP kinase-activated protein kinase 5 (Homo sapiens) (UniProt Q8IW41); assay: Inhibition of recombinant full length human His-tagged PRAK expressed in baculovirus expression system at 0.1 uM using serine/threonine-4 peptide as substrate incubated for 60 mins by Z'-LYTE assay relative to control
[17] = target: Serine/threonine-protein kinase Sgk2 (Homo sapiens) (UniProt Q9HBY8); assay: Inhibition of recombinant human GST-tagged SGK2 catalytic domain (54 to 427 residues) expressed in baculovirus expression system at 0.1 uM using serine/threonine-6 peptide as substrate incubated for 60 mins by Z'-LYTE assay relative to control
[18] = Lipophilicity, log D of the compound by microscale shake flask method; type: physicochemical; conditions: octanol/water
[19] = target: Cyclin-dependent kinase 1/cyclin B1 (Homo sapiens) (UniProt P06493+P14635); conditions: at 0.1 µM
Description: Inhibition of recombinant full length human His-tagged CDK1/CyclinB expressed in baculovirus expression system at 0.1 uM using serine/threonine-18 peptide as substrate incubated for 60 mins by Z'-LYTE assay relative to control

[20] = target: CDK2/Cyclin A2 (Homo sapiens) (UniProt P24941+P20248); conditions: at 0.1 µM
Description: Inhibition of recombinant full length human His-tagged CDK2/Cyclin A expressed in baculovirus expression system at 0.1 uM using serine/threonine-12 peptide as substrate incubated for 60 mins by Z'-LYTE assay relative to control

[21] = in vivo; conditions: CD-1, mouse, iv, 1 mg/kg
Description: Volume of distribution at steady state in CD-1 mouse at 1.0 mg/kg, iv measured upto 6 hours by LC-MS/MS analysis

[22] = in vivo; conditions: CD-1, mouse, plasma, po, 25 mg/kg
Description: Protein binding in CD-1 mouse plasma assessed as fraction unbound at 25 mg/kg, po measured up to 6 hours by LC-MS/MS analysis

[23] = in vivo; conditions: CD-1, mouse, brain, po, 25 mg/kg
Description: Protein binding in CD-1 mouse brain at 25 mg/kg, po measured upto 6 hours by LC-MS/MS analysis

[24] = in vivo; conditions: CD-1, mouse, brain/plasma, iv, 1 mg/kg
Description: Plasma to brain permeability coefficient, Kp of the compound in CD-1 mouse at 1.0 mg/kg, iv measured at 1 hr post dose by LC/MS/MS analysis

[25] = in vivo; conditions: CD-1, mouse, brain/plasma, po, 25 mg/kg
Description: Plasma to brain permeability coefficient, Kp of the compound in CD-1 mouse at 25 mg/kg, po measured at 6 hrs post dose by LC/MS/MS analysis

[26] = in vivo; conditions: CD-1, mouse, brain/plasma, iv, 1 mg/kg; remark: listed apart in the source
Description: Plasma to brain permeability coefficient, Kp of the unbound compound in CD-1 mouse at 1.0 mg/kg, iv measured at 1 hr post dose by LC/MS/MS analysis

[27] = target: Dual specificity mitogen-activated protein kinase kinase 3 (Homo sapiens) (UniProt P46734); assay: Inhibition of recombinant full length human GST-tagged MEK3 expressed in baculovirus expression system at 0.1 uM using serine/threonine-3 peptide as substrate incubated for 60 mins by Z'-LYTE assay relative to control
[28] = target: Serine/threonine-protein kinase 26 (Homo sapiens) (UniProt Q9P289); assay: Inhibition of recombinant full length human GST-tagged MST4 expressed in baculovirus expression system at 0.1 uM using serine/threonine-7 peptide as substrate incubated for 60 mins by Z'-LYTE assay relative to control
[29] = Unbound brain to plasma ratio in Sprague-Dawley rat at 30 mg/kg, po after 48 hrs by LC-MS/MS analysis; type: ADME, organism-based; conditions: read-out: K(p,uu,brain)

NUAK family SNF1-like kinase 1 (Homo sapiens), sequence (O60285 whole entry): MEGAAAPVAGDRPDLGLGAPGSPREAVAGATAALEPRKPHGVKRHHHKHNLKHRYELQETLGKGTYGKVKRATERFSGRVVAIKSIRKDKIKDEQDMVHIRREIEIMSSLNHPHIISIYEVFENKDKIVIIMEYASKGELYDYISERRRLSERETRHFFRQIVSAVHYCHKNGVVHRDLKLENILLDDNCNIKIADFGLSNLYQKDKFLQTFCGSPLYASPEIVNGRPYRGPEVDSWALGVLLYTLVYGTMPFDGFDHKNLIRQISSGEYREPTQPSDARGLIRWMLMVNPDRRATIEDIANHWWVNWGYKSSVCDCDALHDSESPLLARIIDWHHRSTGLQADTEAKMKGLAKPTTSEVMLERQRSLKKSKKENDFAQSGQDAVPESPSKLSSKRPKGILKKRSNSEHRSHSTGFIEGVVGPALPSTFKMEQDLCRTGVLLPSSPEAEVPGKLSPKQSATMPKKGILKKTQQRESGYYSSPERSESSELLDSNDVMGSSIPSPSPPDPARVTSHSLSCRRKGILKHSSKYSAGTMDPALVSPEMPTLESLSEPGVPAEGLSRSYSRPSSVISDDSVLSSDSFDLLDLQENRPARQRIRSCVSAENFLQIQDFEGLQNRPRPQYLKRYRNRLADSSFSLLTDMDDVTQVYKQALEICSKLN
Calcium/calmodulin-dependent protein kinase type II subunit beta (Homo sapiens), sequence (Q13554 whole entry): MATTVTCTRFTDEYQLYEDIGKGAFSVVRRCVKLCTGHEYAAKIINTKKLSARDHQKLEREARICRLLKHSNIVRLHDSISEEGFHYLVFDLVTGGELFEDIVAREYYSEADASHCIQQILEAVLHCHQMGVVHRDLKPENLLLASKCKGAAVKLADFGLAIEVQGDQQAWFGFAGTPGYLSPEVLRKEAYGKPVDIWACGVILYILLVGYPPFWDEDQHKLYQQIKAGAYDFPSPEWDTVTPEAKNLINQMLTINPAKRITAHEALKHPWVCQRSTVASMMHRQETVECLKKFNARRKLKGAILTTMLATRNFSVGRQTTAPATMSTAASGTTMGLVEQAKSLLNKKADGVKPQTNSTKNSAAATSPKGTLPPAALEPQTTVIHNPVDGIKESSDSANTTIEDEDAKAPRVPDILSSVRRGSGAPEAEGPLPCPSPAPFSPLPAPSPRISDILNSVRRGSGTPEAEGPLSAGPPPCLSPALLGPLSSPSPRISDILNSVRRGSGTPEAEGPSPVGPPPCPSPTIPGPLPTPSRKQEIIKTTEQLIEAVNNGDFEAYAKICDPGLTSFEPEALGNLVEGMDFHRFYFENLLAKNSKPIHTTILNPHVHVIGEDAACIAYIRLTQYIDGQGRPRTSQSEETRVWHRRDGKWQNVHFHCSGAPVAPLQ
Serine/threonine-protein kinase DCLK2 (Homo sapiens), sequence (Q8N568 whole entry): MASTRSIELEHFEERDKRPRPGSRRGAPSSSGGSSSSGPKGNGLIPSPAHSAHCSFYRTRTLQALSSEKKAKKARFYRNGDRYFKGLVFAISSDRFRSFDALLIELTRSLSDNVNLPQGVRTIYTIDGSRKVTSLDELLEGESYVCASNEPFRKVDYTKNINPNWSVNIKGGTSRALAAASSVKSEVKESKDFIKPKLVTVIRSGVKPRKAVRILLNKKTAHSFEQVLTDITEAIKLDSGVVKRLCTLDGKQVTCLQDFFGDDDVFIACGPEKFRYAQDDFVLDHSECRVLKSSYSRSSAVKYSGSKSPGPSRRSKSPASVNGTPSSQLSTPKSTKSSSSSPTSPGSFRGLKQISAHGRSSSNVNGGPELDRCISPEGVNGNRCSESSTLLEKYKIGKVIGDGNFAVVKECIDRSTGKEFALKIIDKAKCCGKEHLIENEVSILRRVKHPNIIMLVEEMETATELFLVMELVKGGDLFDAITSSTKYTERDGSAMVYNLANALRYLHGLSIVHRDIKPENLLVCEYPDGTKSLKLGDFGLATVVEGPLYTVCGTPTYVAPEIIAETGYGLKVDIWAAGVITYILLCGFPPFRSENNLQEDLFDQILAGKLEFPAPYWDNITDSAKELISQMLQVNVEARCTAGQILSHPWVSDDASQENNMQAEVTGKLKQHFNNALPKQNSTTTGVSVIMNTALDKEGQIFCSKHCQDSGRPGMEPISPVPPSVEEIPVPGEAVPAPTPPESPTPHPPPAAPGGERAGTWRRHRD
Casein kinase I isoform gamma-1 (Homo sapiens), sequence (Q9HCP0 whole entry, looked up, the tested form may be a part, canonical isoform): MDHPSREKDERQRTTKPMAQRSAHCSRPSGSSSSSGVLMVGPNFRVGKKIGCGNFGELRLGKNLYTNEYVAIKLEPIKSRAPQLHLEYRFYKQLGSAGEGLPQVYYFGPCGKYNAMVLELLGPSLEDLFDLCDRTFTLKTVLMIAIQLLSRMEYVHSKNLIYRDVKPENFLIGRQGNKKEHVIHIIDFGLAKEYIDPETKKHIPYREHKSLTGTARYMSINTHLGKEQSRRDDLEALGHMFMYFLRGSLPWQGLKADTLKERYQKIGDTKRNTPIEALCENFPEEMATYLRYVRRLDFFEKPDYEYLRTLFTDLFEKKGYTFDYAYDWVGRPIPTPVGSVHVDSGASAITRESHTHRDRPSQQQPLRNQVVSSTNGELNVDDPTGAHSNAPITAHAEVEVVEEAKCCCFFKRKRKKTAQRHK
Tyrosine-protein kinase receptor UFO (Homo sapiens), sequence (P30530 whole entry): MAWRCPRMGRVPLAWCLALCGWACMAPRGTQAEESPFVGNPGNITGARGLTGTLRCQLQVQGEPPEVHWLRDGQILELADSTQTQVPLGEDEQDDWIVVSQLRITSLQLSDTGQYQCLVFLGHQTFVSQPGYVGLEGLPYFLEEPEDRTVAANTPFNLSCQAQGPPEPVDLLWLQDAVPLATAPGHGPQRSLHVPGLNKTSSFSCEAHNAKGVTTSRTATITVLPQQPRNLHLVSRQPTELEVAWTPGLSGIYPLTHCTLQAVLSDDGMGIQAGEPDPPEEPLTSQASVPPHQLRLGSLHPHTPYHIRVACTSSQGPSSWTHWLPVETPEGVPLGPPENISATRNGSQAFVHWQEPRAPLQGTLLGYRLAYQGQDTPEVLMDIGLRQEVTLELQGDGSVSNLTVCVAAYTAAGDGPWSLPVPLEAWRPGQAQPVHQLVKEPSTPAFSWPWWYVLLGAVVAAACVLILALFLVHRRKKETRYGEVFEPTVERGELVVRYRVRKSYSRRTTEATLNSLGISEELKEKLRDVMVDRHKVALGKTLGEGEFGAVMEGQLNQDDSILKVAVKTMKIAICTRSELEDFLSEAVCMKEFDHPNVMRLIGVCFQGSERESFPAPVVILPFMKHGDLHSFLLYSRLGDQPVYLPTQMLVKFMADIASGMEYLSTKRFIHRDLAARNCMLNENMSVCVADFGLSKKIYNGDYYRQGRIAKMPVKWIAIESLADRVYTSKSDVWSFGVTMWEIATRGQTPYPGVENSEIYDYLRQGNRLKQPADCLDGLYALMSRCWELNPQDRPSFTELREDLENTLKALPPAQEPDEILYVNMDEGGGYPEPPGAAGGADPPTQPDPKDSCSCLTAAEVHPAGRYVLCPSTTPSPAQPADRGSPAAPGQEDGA
Dual specificity mitogen-activated protein kinase kinase 1 (Homo sapiens), sequence (Q02750 whole entry, the tested form may be a part): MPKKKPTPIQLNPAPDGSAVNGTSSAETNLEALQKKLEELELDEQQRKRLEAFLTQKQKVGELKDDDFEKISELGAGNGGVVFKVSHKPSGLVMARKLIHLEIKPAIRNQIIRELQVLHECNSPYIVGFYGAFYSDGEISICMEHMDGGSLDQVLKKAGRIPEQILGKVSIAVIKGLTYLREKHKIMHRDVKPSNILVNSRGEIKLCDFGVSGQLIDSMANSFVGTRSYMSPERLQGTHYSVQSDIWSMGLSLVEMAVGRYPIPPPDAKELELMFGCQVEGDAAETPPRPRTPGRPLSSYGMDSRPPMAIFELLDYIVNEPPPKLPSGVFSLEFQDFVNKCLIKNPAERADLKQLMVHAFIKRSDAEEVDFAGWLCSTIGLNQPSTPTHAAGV
Tyrosine-protein kinase Blk (Homo sapiens), sequence (P51451 2-505 limits assumed): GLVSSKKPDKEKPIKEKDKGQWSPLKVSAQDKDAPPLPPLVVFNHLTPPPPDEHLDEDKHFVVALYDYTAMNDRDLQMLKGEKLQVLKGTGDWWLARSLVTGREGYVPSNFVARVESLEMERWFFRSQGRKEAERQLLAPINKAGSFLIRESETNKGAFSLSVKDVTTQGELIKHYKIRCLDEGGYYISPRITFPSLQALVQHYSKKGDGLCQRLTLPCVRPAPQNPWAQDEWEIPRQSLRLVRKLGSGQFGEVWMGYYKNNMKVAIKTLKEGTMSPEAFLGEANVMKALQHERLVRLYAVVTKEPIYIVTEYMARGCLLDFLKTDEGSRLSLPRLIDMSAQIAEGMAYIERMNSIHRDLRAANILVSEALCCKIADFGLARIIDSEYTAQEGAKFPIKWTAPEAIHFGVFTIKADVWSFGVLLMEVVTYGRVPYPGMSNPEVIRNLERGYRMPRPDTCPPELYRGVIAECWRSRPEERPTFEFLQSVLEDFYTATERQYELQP
MAP kinase-activated protein kinase 5 (Homo sapiens), sequence (Q8IW41 whole entry, the tested form may be a part): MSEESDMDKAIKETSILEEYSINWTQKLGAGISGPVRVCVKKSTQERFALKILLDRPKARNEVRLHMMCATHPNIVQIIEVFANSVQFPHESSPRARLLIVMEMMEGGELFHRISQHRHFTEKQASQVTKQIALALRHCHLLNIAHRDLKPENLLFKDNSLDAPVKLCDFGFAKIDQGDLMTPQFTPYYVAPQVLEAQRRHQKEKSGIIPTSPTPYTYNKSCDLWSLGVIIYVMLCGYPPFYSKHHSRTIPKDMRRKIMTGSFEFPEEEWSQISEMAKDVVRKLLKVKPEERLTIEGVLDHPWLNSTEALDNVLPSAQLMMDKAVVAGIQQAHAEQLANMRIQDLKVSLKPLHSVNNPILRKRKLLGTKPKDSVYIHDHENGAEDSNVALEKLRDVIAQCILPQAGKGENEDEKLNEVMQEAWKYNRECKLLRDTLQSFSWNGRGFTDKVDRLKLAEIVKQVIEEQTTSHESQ

Row | SMILES | inhibition [1] | inhibition [2] | inhibition [3] | inhibition [4] | inhibition [6] | inhibition [8] | inhibition [9] | inhibition [11] | inhibition [13] | inhibition [14] | inhibition [15] | inhibition [16] | inhibition [17] | other results
1 | CCN1CC2(C1)CN(c1ccc(Nc3ncc(F)c(-c4cnn5c4[C@H](C)CCCC5)n3)nc1)C2 | 92% | 11.5% | 3.5% | 44% | 1.5% | 20.5% | 20.5% | 0% | -2% | 20.5% | 10% | 13.5% | 27.5% | inhibition [5]: 88.5%; inhibition [7]: 77.5%; inhibition [10]: 34%; inhibition [12]: 26%; logD [18]: 2.1; inhibition [19]: 52.5%; inhibition [20]: 86.5%; Vd at 6 h [21]: 6.2 L/kg; fraction unbound at 6 h [22]: 0.073; fraction unbound at 6 h [23]: 0.009; Kp at 1 h [24]: 4.8; Kp at 6 h [25]: 1.6; Kp uu at 1 h [26]: 0.59
2 | CCN1CCN(Cc2ccc(Nc3ncc(F)c(-c4cc(F)c5nc(C)n(C(C)C)c5c4)n3)nc2)CC1 [ABEMACICLIB] | 22.7% | 15% | 12.5% | 69.4% | -0.5% | 88% | 9.5% | 4% | 53.1% | 4.7% | 32.5% | 5% | 36.5% | inhibition [27]: 33.2%; inhibition [28]: -2%; Kp uu at 48 h [29]: 0.11
